Patent US20070043076A1, “Substituted 2-arylmethylene-n-aryl-n'aryl-malonamides and analogs as activators of caspases and inducers of apoptosis” (priority 2003, published 2007)
Read-outs that look alike come from different tables or passages of the source.

Assays:
[1] = test system: T-47D; assay: Caspase cascade activation (Ac-DEVD-R110 fluorogenic substrate) in T-47D cells; assay type: cell-based, Human; details: 24 h incubation; for Caspase Activity Ratio: ratio of net RFU to that of control samples; for EC50: 0.16 to 10 μM final, read-out: Caspase potency EC50
Method: (§1) Human breast cancer cell lines T-47D and ZR-75-1 were grown according to media component mixtures designated by American Type Culture Collection +10% FCS (Invitrogen Corporation), in a 5% CO2-95% humidity incubator at 37° C. T-47D and ZR-75-1 cells were maintained at a cell density between 30 and 80% confluency and for HL-60 at a cell density of 0.1 to 0.6×10^6 cells/mL. Cells were harvested at 600×g and resuspended at 0.65×10^6 cells/mL into appropriate media +10% FCS. An aliquot of 45 μL of cells was added to a well of a 96-well microtiter plate containing 5 μL of a 10% DMSO in RPMI-1640 media solution containing 1.6 to 100 μM of N,N′-bis-(3-trifluoromethyl-phenyl)-2-(4-isopropyl-benzylidene)-malonamide or other test compound (0.16 to 10 μM final). An aliquot of 45 μL of cells was added to a well of a 96-well microtiter plate containing 5 μL of a 10% DMSO in RPMI-1640 media solution without test compound as the control sample. The samples were mixed by agitation and then incubated at 37° C. for 24 h in a 5% CO2-95% humidity incubator. After incubation, the samples were removed from the incubator and […] of a solution containing 20 μM of N-(Ac-DEVD)-N′-ethoxycarbonyl-R110 fluorogenic substrate (SEQ ID NO:1) (Cytovia, Inc.; U.S. Pat. No. 6,335,429), 20% sucrose (Sigma), 20 mM DTT (Sigma), 200 mM NaCl (Sigma), 40 mM Na PIPES buffer pH 7.2 (Sigma), and 500 μg/mL lysolecithin (Calbiochem) was added. The samples were mixed by agitation and incubated at room temperature. Using a fluorescent plate reader (Model 1420 Wallac Instruments), an initial reading (T=0) was made approximately 1-2 min after addition of the substrate solution, employing excitation at 485 nm and emission at 530 nm, to determine the background fluorescence of the control sample. After approximately 3 h of incubation, the samples were read for fluorescence as above (T=3 h).
(§2) The relative Fluorescence Unit values (RFU) were used to calculate the sample readings as follows: RFU(T=3h)−Control RFU(T=0)=Net RFU(T=3h)
(§3) The activity of caspase cascade activation was determined by the ratio of the net RFU value for N,N′-bis-(3-trifluoromethyl-phenyl)-2-(4-isopropyl-benzylidene)-malonamide to that of control samples. The EC50 (nM) was determined by a sigmoidal dose-response calculation (Prism 2.0, GraphPad Software Inc.).

[2] = test system: ZR-75-1; assay: Caspase cascade activation (Ac-DEVD-R110 fluorogenic substrate) in ZR-75-1 cells; assay type: cell-based, Human; details: 24 h incubation; for Caspase Activity Ratio: ratio of net RFU to that of control samples; for EC50: 0.16 to 10 μM final, read-out: Caspase potency EC50
Method: as §1, §2, §3

[3] = test system: T-47D; assay: Inhibition of cell proliferation (GI50, CellTiter 96 AQueous One) in T-47D cells; assay type: cell-based; details: Homo sapiens, T47D, 48 h incubation, read-out: GI50 (dose for 50% inhibition of cell proliferation)
Method: (§4) T-47D and DLD-1 cells were grown and harvested as in Example 105. An aliquot of 90 μL of cells (2.2×10^4 cells/mL) was added to a well of a 96-well microtiter plate containing 10 μl of a 10% DMSO in RPMI-1640 media solution containing 1 nM to 100 μM of N,N′-bis-(3-trifluoromethyl-phenyl)-2-(4-isopropyl-benzylidene)-malonamide (0.1 nM to 10 μM final). An aliquot of 90 μL of cells was added to a well of a 96-well microtiter plate containing 10 μL of a 10% DMSO in RPMI-1640 media solution without compound as the control sample for maximal cell proliferation (AMax). The samples were mixed by agitation and then incubated at 37° C. for 48 h in a 5% CO2-95% humidity incubator. After incubation, the samples were removed from the incubator and 20 μL of CellTiter 96 AQUEOUS One Solution Cell Proliferation™ reagent (Promega) was added. The samples were mixed by agitation and incubated at 37° C. for 2-4 h in a 5% CO2-95% humidity incubator. Using an absorbance plate reader (Model 1420 Wallac Instruments), an initial reading (T=0) was made approximately 1-2 min after addition of the solution, employing absorbance at 490 nm. This determines the possible background absorbance of the test compounds. No absorbance for N,N′-bis-(3-trifluoromethyl-phenyl)-2-(4-isopropyl-benzylidene)-malonamide was found at 490 nm. After the 2-4 h incubation, the samples were read for absorbance as above (ATest).
(§5) Baseline for GI50 (dose for 50% inhibition of cell proliferation) of initial cell numbers were determined by adding an aliquot of 90 μL of cells or 90 μL of media, respectively, to wells of a 96-well microtiter plate containing 10 μL of a 10% DMSO in RPMI-1640 media solution. The samples were mixed by agitation and then incubated at 37° C. for 0.5 h in a 5% CO2-95% humidity incubator. After incubation, the samples were removed from the incubator and 20 μL of CellTiter 96 AQUEOUS One Solution Cell Proliferation™ reagent (Promega) was added. The samples were mixed by agitation and incubated at 37° C. for 2-4 h in a 5% CO2-95% humidity incubator. Absorbance was read as above, (AStart) defining absorbance for initial cell number used as baseline in GI50 determinations.
(§6) GI50 (dose for 50% inhibition of cell proliferation) is the concentration where [(ATest−AStart)/(AMax−AStart)]=0.5.

[4] = test system: DLD-1; assay: Inhibition of cell proliferation (GI50, CellTiter 96 AQueous One) in DLD-1 cells; assay type: cell-based; details: Homo sapiens, 48 h incubation, read-out: GI50 (dose for 50% inhibition of cell proliferation)
Method: as §4, §5, §6

Structure (SMILES) | EC50 ([1]; Homo sapiens, T47D) | EC50 ([2]; Homo sapiens) | GI50 [3] | GI50 [4] | EC50 [1] | EC50 [2] | Caspase Activity Ratio [1] | Caspase Activity Ratio [2]
O=C(Nc1cccc(C(F)(F)F)c1)C(=Cc1ccco1)C(=O)Nc1cccc(C(F)(F)F)c1 [Example 4, N,N′-Bis-(3-trifluoromethyl-phenyl)-2-furan-2-yl-methylene-malonamide] |  |  |  |  | 5750 nM | 5.6 µM | 28 | 6
COc1ccc(C=C(C(=O)Nc2cccc(C(F)(F)F)c2)C(=O)Nc2cccc(C(F)(F)F)c2)c(OC)c1 [Example 6, N,N′-Bis-(3-trifluoromethyl-phenyl)-2-(2,4-dimethoxy-benzylidene)-malonamide] | > 10000 nM | > 10 µM |  |  |  |  | 1 | 1
CC(C)c1ccc(CC(C(=O)Nc2cccc(C(F)(F)F)c2)C(=O)Nc2cccc(C(F)(F)F)c2)cc1 [Example 7, N,N′-Bis-(3-trifluoromethyl-phenyl)-2-(4-isopropyl-benzyl)-malonamide] | > 10000 nM | 1.7 µM |  |  |  |  | 1 | 2.2
O=C(Nc1cccc(C(F)(F)F)c1)C(=Cc1ccncc1)C(=O)Nc1cccc(C(F)(F)F)c1 [Example 8, N,N′-Bis-(3-trifluoromethyl-phenyl)-2-(4-pyridyl-methylene)-malonamide] | 4050 nM | 4.6 µM | 1570 nM | 1530 nM |  |  | 17 | 9.5
CC(C)c1ccc(C=C(C(=O)Nc2ccccc2)C(=O)Nc2ccccc2)cc1 [Example 10, N,N′-Diphenyl-2-(4-isopropyl-benzylidene)-malonamide] | 5790 nM | 4.5 µM |  |  |  |  | 16 | 2.5
CC(C)c1ccc(C=C(C(=O)Nc2ccccc2C(F)(F)F)C(=O)Nc2ccccc2C(F)(F)F)cc1 [Example 11, N,N′-Bis-(2-trifluoromethyl-phenyl)-2-(4-isopropyl-benzylidene)-malonamide] | > 10000 nM | > 10 µM |  |  |  |  | 1 | 1
CC(C)c1ccc(C=C(C(=O)Nc2ccc(C(F)(F)F)cc2)C(=O)Nc2ccc(C(F)(F)F)cc2)cc1 [Example 12, N,N′-Bis-(4-trifluoromethyl-phenyl)-2-(4-isopropyl-benzylidene)-malonamide] | > 10000 nM | > 10 µM |  |  |  |  | 1 | 1
COc1cccc(NC(=O)C(=Cc2ccc(C(C)C)cc2)C(=O)Nc2cccc(OC)c2)c1 [Example 13, N,N′-Bis-(3-methoxy-phenyl)-2-(4-isopropyl-benzylidene)-malonamide] | 2890 nM | 5.5 µM |  |  |  |  | 21 | 4.5
O=C(Nc1cccc(C(F)(F)F)c1)C(=Cc1cnc[nH]1)C(=O)Nc1cccc(C(F)(F)F)c1 [Example 16, N,N′-Bis-(3-trifluoromethyl-phenyl)-2-(3H-imidazol-4-yl-methylene)-malonamide] |  |  | 1720 nM | 1680 nM |  |  |  | 
CC(C)c1ccc(C=C(C(=O)Nc2cccc(O)c2)C(=O)Nc2cccc(O)c2)cc1 [Example 18, N,N′-Bis-(3-hydroxy-phenyl)-2-(4-isopropyl-benzylidene)-malonamide] |  |  | 467 nM | 1650 nM |  |  |  | 
CC(C)c1ccc(C=C(C(=O)Nc2cccc(Br)c2)C(=O)Nc2cccc(Br)c2)cc1 [Example 20, N,N′-Bis-(3-bromo-phenyl)-2-(4-isopropyl-benzylidene)-malonamide] |  |  | 1520 nM | 1660 nM |  |  |  | 
CCc1ccc(C=C(C(=O)Nc2cccc(C(F)(F)F)c2)C(=O)Nc2cccc(C(F)(F)F)c2)cc1 [Example 26, N,N′-Bis-(3-trifluoromethyl-phenyl)-2-(4-ethyl-benzylidene)-malonamide] |  |  | 666 nM | 1650 nM |  |  |  | 

Continued by falling EC50 ([1]; Homo sapiens, T47D), values first:

EC50 ([1]; Homo sapiens, T47D) | EC50 ([2]; Homo sapiens) | GI50 [3] | GI50 [4] | EC50 [1] | EC50 [2] | Structure (SMILES) | Caspase Activity Ratio [1] | Caspase Activity Ratio [2]
2850 nM | 5.5 µM |  |  |  |  | COc1cccc(NC(=O)C(=Cc2ccc(C(F)(F)F)cc2)C(=O)Nc2cccc(OC)c2)c1 [Example 1, N,N′-Bis-(3-methoxy-phenyl)-2-(4-trifluoromethyl-benzylidene)-malonamide] | 28 | 14
1900 nM | 5.4 µM |  |  |  |  | Cc1ccc(C=C(C(=O)Nc2cccc(C(F)(F)F)c2)C(=O)Nc2cccc(C(F)(F)F)c2)c(C)c1 [Example 5, N,N′-Bis-(3-trifluoromethyl-phenyl)-2-(2,4-dimethyl-benzylidene)-malonamide] | 30 | 26
1380 nM | 2.79 µM | 46 nM | 1340 nM |  |  | O=C(Nc1cccc(C(F)(F)F)c1)C(=Cc1ccccc1)C(=O)Nc1cccc(C(F)(F)F)c1 [Example 15, N,N′-Bis-(3-trifluoromethyl-phenyl)-2-benzylidene-malonamide] | 16 | 6
738 nM | 1.98 µM | 1190 nM | 1230 nM |  |  | CC(C)c1ccc(C=C(C(=O)Nc2cccc(Cl)c2)C(=O)Nc2cccc(Cl)c2)cc1 [Example 14, N,N′-Bis-(3-chloro-phenyl)-2-(4-isopropyl-benzylidene)-malonamide] | 21 | 7.2
647 nM | 0.906 µM | 150 nM | 200 nM |  |  | O=C(Nc1cccc(C(F)(F)F)c1)C(=Cc1ccc(Cl)cc1Cl)C(=O)Nc1cccc(C(F)(F)F)c1 [Example 2, N,N′-Bis-(3-trifluoromethyl-phenyl)-2-(2,4-dichloro-benzylidene)-malonamide] | 16 | 18
